Data from ChEMBL document CHEMBL1155271, “Synthesis, crystal structures and antibacterial activity studies of aza-derivatives of phytoalexin from cotton plant--gossypol” (2009).
Values after ≈ are worked out from the molar mass of the structure shown. Active and inactive are the calls of the source. The calls are words filed in the database; no cut-off is given here.

Legend:
Assay type in all cases: functional
Staphylococcus aureus [1] = assay: Antimicrobial activity against Methicillin susceptible Staphylococcus aureus 242/7 by twofold dilution technique
Bacillus cereus [2] = assay: Antimicrobial activity against Bacillus cereus ATCC 11778 after 18 hrs by twofold dilution technique; details: ATCC 11778, 18 h
Staphylococcus aureus [3] = assay: Antimicrobial activity against methicillin-resistant Staphylococcus aureus 140/6 by twofold dilution technique
Enterococcus hirae [4] = assay: Antimicrobial activity against Enterococcus hirae ATCC 10541 at 400 ug after 18 hrs by disk diffusion method
Staphylococcus aureus [5] = assay: Antimicrobial activity against Methicillin susceptible Staphylococcus aureus 238/7 by twofold dilution technique
Staphylococcus aureus [6] = assay: Antimicrobial activity against Staphylococcus aureus ATCC 25923 after 18 hrs by twofold dilution technique; details: ATCC 25923, 18 h
Bacillus cereus [7] = assay: Antimicrobial activity against Bacillus cereus ATCC 11778 at 400 ug after 18 hrs by disk diffusion method; details: ATCC 11778, 18 h, read-out: DIZ
Bacillus subtilis [8] = assay: Antimicrobial activity against Bacillus subtilis ATCC 6633 after 18 hrs by twofold dilution technique; details: ATCC 6633, 18 h
Bacillus subtilis [9] = assay: Antimicrobial activity against Bacillus subtilis ATCC 6633 at 400 ug after 18 hrs by disk diffusion method; details: ATCC 6633, 18 h, read-out: DIZ
Staphylococcus aureus [10] = assay: Antimicrobial activity against Methicillin susceptible Staphylococcus aureus 237/7 by twofold dilution technique
Staphylococcus aureus [11] = assay: Antimicrobial activity against Staphylococcus aureus ATCC 6538 at 400 ug after 18 hrs by disk diffusion method; details: ATCC 6538, 18 h, read-out: DIZ
[12] = system: Staphylococcus epidermidis; assay: Antimicrobial activity against Staphylococcus epidermidis ATCC 12228 by twofold dilution technique
Staphylococcus aureus [13] = assay: Antimicrobial activity against Staphylococcus aureus ATCC 29213 after 18 hrs by twofold dilution technique; details: ATCC 29213, 18 h
Staphylococcus aureus [14] = assay: Antimicrobial activity against Staphylococcus aureus NCTC 4163 at 400 ug after 18 hrs by disk diffusion method; details: NCTC 4163, 18 h, read-out: DIZ
Staphylococcus aureus [15] = assay: Antimicrobial activity against methicillin-resistant Staphylococcus aureus 141/6 by twofold dilution technique
Staphylococcus aureus [16] = assay: Antimicrobial activity against methicillin-resistant Staphylococcus aureus 218/7 by twofold dilution technique
Staphylococcus aureus [17] = assay: Antimicrobial activity against Methicillin susceptible Staphylococcus aureus 243/7 by twofold dilution technique
Staphylococcus aureus [18] = assay: Antimicrobial activity against Methicillin susceptible Staphylococcus aureus 206/7 by twofold dilution technique
Micrococcus luteus [19] = assay: Antimicrobial activity against Micrococcus luteus ATCC 10240 by twofold dilution technique
Staphylococcus aureus [20] = assay: Antimicrobial activity against methicillin-resistant Staphylococcus aureus 200/7 by twofold dilution technique
[21] = system: Staphylococcus epidermidis; assay: Antimicrobial activity against Staphylococcus epidermidis ATCC 12228 at 400 ug after 18 hrs by disk diffusion method; details: ATCC 12228, 18 h, read-out: DIZ
Staphylococcus aureus [22] = assay: Antimicrobial activity against Methicillin susceptible Staphylococcus aureus 239/7 by twofold dilution technique
Staphylococcus aureus [23] = assay: Antimicrobial activity against Staphylococcus aureus NCTC 4163 after 18 hrs by twofold dilution technique; details: NCTC 4163, 18 h
Staphylococcus aureus [24] = assay: Antimicrobial activity against Methicillin susceptible Staphylococcus aureus 208/7 by twofold dilution technique
Micrococcus luteus [25] = assay: Antimicrobial activity against Micrococcus luteus ATCC 10240 at 400 ug after 18 hrs by disk diffusion method; details: ATCC 10240, 18 h, read-out: DIZ
Staphylococcus aureus [26] = assay: Antimicrobial activity against Methicillin susceptible Staphylococcus aureus 207/7 by twofold dilution technique
Staphylococcus aureus [27] = assay: Antimicrobial activity against Staphylococcus aureus ATCC 29213 at 400 ug after 18 hrs by disk diffusion method; details: ATCC 29213, 18 h, read-out: DIZ
Staphylococcus aureus [28] = assay: Antimicrobial activity against Staphylococcus aureus ATCC 6538 after 18 hrs by twofold dilution technique; details: ATCC 6538, 18 h
Staphylococcus aureus [29] = assay: Antimicrobial activity against methicillin-resistant Staphylococcus aureus 217/7 by twofold dilution technique
Micrococcus luteus [30] = assay: Antimicrobial activity against Micrococcus luteus ATCC 9341 at 400 ug after 18 hrs by disk diffusion method
Staphylococcus aureus [31] = assay: Antimicrobial activity against methicillin-resistant Staphylococcus aureus 143/6 by twofold dilution technique
Staphylococcus aureus [32] = assay: Antimicrobial activity against methicillin-resistant Staphylococcus aureus 146/6 by twofold dilution technique
Staphylococcus aureus [33] = assay: Antimicrobial activity against methicillin-resistant Staphylococcus aureus 136/6 by twofold dilution technique
Staphylococcus aureus [34] = assay: Antimicrobial activity against methicillin-resistant Staphylococcus aureus 144/6 by twofold dilution technique
Staphylococcus aureus [35] = assay: Antimicrobial activity against Methicillin susceptible Staphylococcus aureus 212/7 by twofold dilution technique
Staphylococcus aureus [36] = assay: Antimicrobial activity against Methicillin susceptible Staphylococcus aureus 213/7 by twofold dilution technique
Staphylococcus aureus [37] = assay: Antimicrobial activity against Staphylococcus aureus ATCC 25923 at 400 ug after 18 hrs by disk diffusion method; details: ATCC 25923, 18 h, read-out: DIZ
Enterococcus hirae [38] = assay: Antimicrobial activity against Enterococcus hirae ATCC 10541 after 18 hrs by twofold dilution technique; details: ATCC 10541, 18 h
Micrococcus luteus [39] = assay: Antimicrobial activity against Micrococcus luteus ATCC 9341 after 18 hrs by twofold dilution technique; details: ATCC 9341, 18 h
Staphylococcus aureus [40] = assay: Antimicrobial activity against methicillin-resistant Staphylococcus aureus 236/7 by twofold dilution technique

Compound	MIC (Staphylococcus aureus [1]) [µg/mL]	MIC (Bacillus cereus [2]) [µg/mL]	MIC (Staphylococcus aureus [3]) [µg/mL]	diameter of the inhibition zone (DIZ) (Enterococcus hirae [4])	MIC (Staphylococcus aureus [5]) [µg/mL]	MIC (Staphylococcus aureus [6]) [µg/mL]	zone of inhibition at 400 µg/disc (Bacillus cereus [7]) [mm]	MIC (Bacillus subtilis [8]) [µg/mL]	zone of inhibition at 400 µg/disc (Bacillus subtilis [9]) [mm]	MIC (Staphylococcus aureus [10]) [µg/mL]	zone of inhibition at 400 µg/disc (Staphylococcus aureus [11]) [mm]	MIC [12] [µg/mL]	MIC (Staphylococcus aureus [13]) [µg/mL]	MIC (Staphylococcus aureus [15]) [µg/mL]	MIC (Staphylococcus aureus [16]) [µg/mL]	MIC (Staphylococcus aureus [17]) [µg/mL]	MIC (Staphylococcus aureus [18]) [µg/mL]	MIC (Micrococcus luteus [19]) [µg/mL]	MIC (Staphylococcus aureus [20]) [µg/mL]	zone of inhibition at 400 µg/disc [21] [mm]	also measured
COCCOCCOCCN/N=C/c1c(O)c(O)c(C(C)C)c2cc(C)c(-c3c(C)cc4c(C(C)C)c(O)c(O)c(/C=N/NCCOCCOCCOC)c4c3O)c(O)c12	100 (≈ 119 µM)	100 (≈ 119 µM)	200 (≈ 238 µM)	inactive	400 (≈ 477 µM)	200 (≈ 238 µM)	12	> 400	11	400 (≈ 477 µM)	11	> 400	200 (≈ 238 µM)	400 (≈ 477 µM)	400 (≈ 477 µM)	400 (≈ 477 µM)	200 (≈ 238 µM)	400 (≈ 477 µM)	400 (≈ 477 µM)	14	zone of inhibition at 400 µg/disc (Staphylococcus aureus [14]): 11 mm; MIC (Staphylococcus aureus [22]): 400 µg/mL (≈ 477 µM); MIC (Staphylococcus aureus [23]): 200 µg/mL (≈ 238 µM); MIC (Staphylococcus aureus [24]): 400 µg/mL (≈ 477 µM); zone of inhibition at 400 µg/disc (Micrococcus luteus [25]): 13 mm; MIC (Staphylococcus aureus [26]): 400 µg/mL (≈ 477 µM); zone of inhibition at 400 µg/disc (Staphylococcus aureus [27]): 12 mm; MIC (Staphylococcus aureus [28]): 200 µg/mL (≈ 238 µM); MIC (Staphylococcus aureus [29]): 200 µg/mL (≈ 238 µM); diameter of the inhibition zone (DIZ) (Micrococcus luteus [30]): inactive; MIC (Staphylococcus aureus [31]): 400 µg/mL (≈ 477 µM); MIC (Staphylococcus aureus [32]): 200 µg/mL (≈ 238 µM); MIC (Staphylococcus aureus [33]): 200 µg/mL (≈ 238 µM); MIC (Staphylococcus aureus [34]): 400 µg/mL (≈ 477 µM); MIC (Staphylococcus aureus [35]): 400 µg/mL (≈ 477 µM); MIC (Staphylococcus aureus [36]): 400 µg/mL (≈ 477 µM); zone of inhibition at 400 µg/disc (Staphylococcus aureus [37]): 12 mm; MIC (Enterococcus hirae [38]): 200 µg/mL (≈ 238 µM); MIC (Micrococcus luteus [39]): 400 µg/mL (≈ 477 µM); MIC (Staphylococcus aureus [40]): 100 µg/mL (≈ 119 µM)
Cc1cc2c(c(O)c1-c1c(C)cc3c(c1O)/C(=C/N)C(=O)C(O)=C3C(C)C)/C(=C/N)C(=O)C(O)=C2C(C)C	50 (≈ 96.8 µM)	50 (≈ 96.8 µM)	100 (≈ 194 µM)	inactive	100 (≈ 194 µM)	100 (≈ 194 µM)	11	100 (≈ 194 µM)	11	100 (≈ 194 µM)	14	> 400	50 (≈ 96.8 µM)	100 (≈ 194 µM)	100 (≈ 194 µM)	100 (≈ 194 µM)	100 (≈ 194 µM)	100 (≈ 194 µM)	100 (≈ 194 µM)	12	zone of inhibition at 400 µg/disc (Staphylococcus aureus [14]): 15 mm; MIC (Staphylococcus aureus [22]): 100 µg/mL (≈ 194 µM); MIC (Staphylococcus aureus [23]): 100 µg/mL (≈ 194 µM); MIC (Staphylococcus aureus [24]): 100 µg/mL (≈ 194 µM); zone of inhibition at 400 µg/disc (Micrococcus luteus [25]): 14 mm; MIC (Staphylococcus aureus [26]): 200 µg/mL (≈ 387 µM); zone of inhibition at 400 µg/disc (Staphylococcus aureus [27]): 13 mm; MIC (Staphylococcus aureus [28]): 50 µg/mL (≈ 96.8 µM); MIC (Staphylococcus aureus [29]): 200 µg/mL (≈ 387 µM); zone of inhibition at 400 µg/disc (Micrococcus luteus [30]; ATCC 9341, 18 h, read-out: DIZ): 11 mm; MIC (Staphylococcus aureus [31]): 100 µg/mL (≈ 194 µM); MIC (Staphylococcus aureus [32]): 100 µg/mL (≈ 194 µM); MIC (Staphylococcus aureus [33]): 100 µg/mL (≈ 194 µM); MIC (Staphylococcus aureus [34]): 100 µg/mL (≈ 194 µM); MIC (Staphylococcus aureus [35]): 200 µg/mL (≈ 387 µM); MIC (Staphylococcus aureus [36]): 100 µg/mL (≈ 194 µM); zone of inhibition at 400 µg/disc (Staphylococcus aureus [37]): 13 mm; MIC (Enterococcus hirae [38]): 100 µg/mL (≈ 194 µM); MIC (Micrococcus luteus [39]): 100 µg/mL (≈ 194 µM); MIC (Staphylococcus aureus [40]): 100 µg/mL (≈ 194 µM)
Cc1cc2c(c(O)c1-c1c(C)cc3c(c1O)/C(=C/NCC1COCCOCCOCCOCCOCCO1)C(=O)C(O)=C3C(C)C)/C(=C/NCC1COCCOCCOCCOCCOCCO1)C(=O)C(O)=C2C(C)C (centres undefined)	100 (≈ 93.5 µM)	100 (≈ 93.5 µM)	100 (≈ 93.5 µM)	inactive	100 (≈ 93.5 µM)	100 (≈ 93.5 µM)	11	200 (≈ 187 µM)	11	100 (≈ 93.5 µM)	11	> 400	100 (≈ 93.5 µM)	100 (≈ 93.5 µM)	100 (≈ 93.5 µM)	200 (≈ 187 µM)	100 (≈ 93.5 µM)	100 (≈ 93.5 µM)	200 (≈ 187 µM)	12	MIC (Staphylococcus aureus [22]): 100 µg/mL (≈ 93.5 µM); MIC (Staphylococcus aureus [23]): 100 µg/mL (≈ 93.5 µM); MIC (Staphylococcus aureus [24]): 200 µg/mL (≈ 187 µM); zone of inhibition at 400 µg/disc (Micrococcus luteus [25]): 14 mm; MIC (Staphylococcus aureus [26]): 200 µg/mL (≈ 187 µM); zone of inhibition at 400 µg/disc (Staphylococcus aureus [27]): 11 mm; MIC (Staphylococcus aureus [28]): 100 µg/mL (≈ 93.5 µM); MIC (Staphylococcus aureus [29]): 200 µg/mL (≈ 187 µM); diameter of the inhibition zone (DIZ) (Micrococcus luteus [30]): inactive; MIC (Staphylococcus aureus [31]): 100 µg/mL (≈ 93.5 µM); MIC (Staphylococcus aureus [32]): 100 µg/mL (≈ 93.5 µM); MIC (Staphylococcus aureus [33]): 100 µg/mL (≈ 93.5 µM); MIC (Staphylococcus aureus [34]): 100 µg/mL (≈ 93.5 µM); MIC (Staphylococcus aureus [35]): 100 µg/mL (≈ 93.5 µM); MIC (Staphylococcus aureus [36]): 100 µg/mL (≈ 93.5 µM); zone of inhibition at 400 µg/disc (Staphylococcus aureus [37]): 11 mm; MIC (Enterococcus hirae [38]): 100 µg/mL (≈ 93.5 µM); MIC (Micrococcus luteus [39]): 100 µg/mL (≈ 93.5 µM); MIC (Staphylococcus aureus [40]): 100 µg/mL (≈ 93.5 µM)
